Data on 34 molecules can be found in a melting point compilation (Tetko et al.; mined from patent text by program, amines drawn as free bases though some values may be those of a salt).

Molecule `CCC1(CC)Cc2cc(OCC(=O)O)c(Cl)c(Cl)c2C1=O` displayed a melting point of 111 °C.

On to `CC(=O)NC1C(Oc2nc[nH]c2C(N)=O)OC(COC(C)=O)C(OC(C)=O)C1OC(C)=O` (centres undefined), for which the melting point lay in the range of 133 to 135 °C.

`CN1Cc2cc(C(c3ccccc3)n3ccnc3)ccc2NC1=O` (centres undefined): the melting point was 174 °C.

Molecule `O=C(Nc1ccc(SC(F)(F)F)cc1)c1ccc2c(c1O)CCCC2` gave a melting point of 167 °C.

In the case of `O=c1[nH]c(-c2ccccc2F)nc2c1CCCC2`, the melting point was 170 °C.

Turning to `CCCCCCCCCCCCCCCCCCOC[C@H](CO)OC(=O)NC`, the melting point was in the range of 68 to 69 °C.

Regarding `O=C(O)c1cc(F)cc(-c2cccc3cc(Cc4cccc(C(F)(F)F)c4)sc23)c1`, the melting point was in the range of 140 to 142 °C.

On to `Cc1cc(O)c(C(C)(C)C)cc1SC(Sc1cc(C(C)(C)C)c(O)cc1C)Sc1cc(C(C)(C)C)c(O)cc1C`, for which the melting point was in the range of 204 to 205 °C.

`O=c1[nH]c2ccc(Cl)cc2c2cc(CO)nn12` yielded a melting point of 316 to 318 °C.

On to `Cc1ccccc1C(=O)Nc1ccc(C(=O)N2Cc3ccccc3Cc3ccccc32)c(C)c1`, for which the melting point fell in the range of 112 to 114 °C.

In the case of `CC(=O)Nc1cc2c(c(C(=O)O)c1)NCCO2`, the melting point came out at 253 °C.

On to `Cc1cccc(NC(=O)NN2CCN(CCc3c[nH]c4ccccc34)CC2)c1`, for which the melting point was in the range of 186 to 188 °C.

The molecule `COC1=CC(=O)N(CC(=O)OCc2ccccc2)C1` registered a melting point of 129 to 130 °C.

Turning to `COc1cc2ncc(C#N)c(Nc3ccc(C)c(Br)c3)c2cc1OC`, the melting point lay in the range of 292 to 294 °C.

Molecule `COc1ccc(S(=O)(=O)N(CCC(F)(F)F)c2ccccc2/C=C/c2ccncc2)cc1` had a melting point of 124 to 126 °C.

Regarding `COc1ccc(CCNc2nc(C)c(CCO)c(=O)n2C)cc1`, the melting point was determined as 210 °C.

Turning to `Nc1ncnc2c1ncn2C1CC(O)(C(=O)c2cccc(C(F)(F)F)c2)C(COC(=O)c2cccc(C(F)(F)F)c2)O1` (centres undefined), the melting point is 160 °C.

Take `Nc1cc(=O)n(Cc2c(Cl)cccc2Cl)[nH]1`: the melting point was found to be 225 °C.

`CCn1ncc2c(NCCc3ccccc3)c3ccccc3nc21` registered a melting point of 157 to 158 °C.

Consider `COc1c(C)c(C(=O)c2ccc3nc(C)[nH]c(=O)c3c2)n2ccccc12`, for which the melting point turned out to be 290 °C.

As for `O=c1n(CC2CN(Cc3ccccc3)CCO2)c2ccccc2n1-c1ccccc1` (centres undefined), the melting point is 90 °C.

As for `O=[N+]([O-])C12C3C4C1C1(Cl)C2C3C41[N+](=O)[O-]` (centres undefined), the melting point was in the range of 145 to 147 °C.

In turn, `COc1ccc(S(=O)(=O)Nc2cccnc2Nc2ccccc2)c(OC)c1` had a melting point of 176 to 178 °C.

The molecule `O=C(O)c1ccc(NCCCOc2ccccc2)cc1` came in with a melting point of 159 to 162 °C.

Take `CCCc1nc2c(N)nc(C)c(C)c2n1CCCCCS(=O)(=O)c1ccccn1`: the melting point was in the range of 143 to 144 °C.

For `C=CCC(NC(=O)CC)C(=O)O` (centres undefined), the melting point lay within 96 to 98 °C.

As for `CC(=O)NCC1CCCc2cc(NS(=O)(=O)c3cccc(F)c3)ccc21` (centres undefined), the melting point lay in the range of 136 to 137 °C.

In the case of `CN(C)C(=O)c1ccc(-c2ccc(NC(=O)Nc3cccc(C(F)(F)F)c3)c(-c3n[nH]c(=O)[nH]3)c2)cc1`, the melting point turned out to be 212 °C.

In the case of `O=C1CCN(C(=O)N2CCN3C(=O)OC(c4ccccc4)(c4ccccc4)C3C2)c2ccccc21` (centres undefined), the melting point is 202 to 205 °C.

`CCCCCCCCCCNC(=O)C=C(c1ccccc1)c1ccc([N+](=O)[O-])cc1`: the melting point lay within 91 to 93 °C.

With `Cc1c(-c2ccc(=O)[nH]c2)cccc1[N+](=O)[O-]`, the melting point is 214 to 216 °C.

Consider `Cc1ccc(Nc2c3ccccc3nc3c(C)cccc23)cc1NC(=O)Oc1ccc(N(CCCl)CCCl)cc1`, for which the melting point fell in the range of 154 to 156 °C.

The molecule `CON=C(C)c1ccc(Nc2nc3ccccc3c3occc23)cc1` came in with a melting point of 222 to 223 °C.

As for `O=C(O)CCCCCCCc1ccc(CCNC(=O)c2ccc(Cl)cc2)cc1`, the melting point lay in the range of 145 to 148 °C.

One may read the melting point as the temperature of the solid-liquid transition.
